# Data: patent US20110166297A1, “MOLECULARLY IMPRINTED SMART POLYMERS (MISPs)” (Sailo Nanotechnologies Ltd., priority 2008, published 2011)
# Assay: Solubility of Erg-TAD-Py (dissolved concentration by HPLC)
# Format: physicochemical
compound,measurement,setting,value
"CC(C)[C@@H](C)/C=C/[C@@H](C)C1CCC2C34C=CC5(C[C@@H](O)CC[C@]5(C)C3CC[C@]12C)n1c(=O)n(CCCc2ccc3ccc5cccc6ccc2c3c56)c(=O)n14 (some centres unmarked) [Erg-TAD-Py, Ergosterol-triazolinedione-pyrene]",Concentration of dissolved Erg-TAD-Py,10% DMSO in serum (inactivated fetal calf serum),7800 ng/mL
same,Concentration of dissolved Erg-TAD-Py,10% DMSO in water,700 ng/mL
same,Concentration of dissolved Erg-TAD-Py,30% DMSO in serum (inactivated fetal calf serum),8400 ng/mL
same,Concentration of dissolved Erg-TAD-Py,30% DMSO in water,6700 ng/mL
same,Concentration of dissolved Erg-TAD-Py,50% DMSO in serum (inactivated fetal calf serum),6800 ng/mL
same,Concentration of dissolved Erg-TAD-Py,50% DMSO in water,6000 ng/mL
same,Concentration at which ethanol dissolves Erg-TAD-Py,,50000 ng/mL
same,Concentration at which ethanol dissolves Erg-TAD-Py,molar equivalent of 0.05 mg/ml,about 60 uM
